From US7829669B2, “Catalytically active recombinant memapsin and methods of use thereof” (Oklahoma Medical Research Foundation, priority 1999, dated 2010)

Key:
[1] = tested on: APP cleavage by M2 in HeLa cells; assay: APP cleavage in HeLa cells co-transfected with APP and M2, pulse-chase and immunoprecipitation; format: cell-based, human; conditions: Bafilomycin A1 in the media
[2] = target: T1, M2pd (Homo sapiens, UniProt P56817); assay: Hydrolysis of synthetic peptide substrates by M2pd, kinetics by HPLC; format: biochemical
T1 construct: Pro-memapsin 2 residues start at residue Ala-16; The two recombinant pro-memapsin 2s have different C-terminal lengths; Clone T1 ends at Thr-456; made in house
T1 sequence (P56817 14-454): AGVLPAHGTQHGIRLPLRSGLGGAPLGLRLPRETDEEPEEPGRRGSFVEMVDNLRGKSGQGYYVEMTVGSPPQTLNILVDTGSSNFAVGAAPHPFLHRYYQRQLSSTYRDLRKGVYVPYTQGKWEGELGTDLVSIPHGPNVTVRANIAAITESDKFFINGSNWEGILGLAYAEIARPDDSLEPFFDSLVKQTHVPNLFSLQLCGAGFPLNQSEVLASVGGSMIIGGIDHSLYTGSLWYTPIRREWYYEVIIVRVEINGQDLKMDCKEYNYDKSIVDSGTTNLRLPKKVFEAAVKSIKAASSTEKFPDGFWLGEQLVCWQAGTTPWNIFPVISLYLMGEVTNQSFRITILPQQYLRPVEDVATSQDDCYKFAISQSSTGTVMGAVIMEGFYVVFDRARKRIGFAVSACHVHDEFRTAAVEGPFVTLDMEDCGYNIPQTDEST
Excerpt: A synthetic peptide derived from this site (SEVKM/DAEFR) (SEQ ID NO:4) was hydrolyzed by M2pd at the beta-secretase site (marked by /). A second peptide (SEVNL/DAEFR) (SEQ ID NO:5) derived from the APP beta-secretase site and containing the ‘Swedish mutation’ (Mullan, M. et al., Nature Genet. 2:340-342 (1992)), known to elevate the level of alpha-beta production in cells (Citron, M. et al., Nature […] (1992)), was hydrolyzed by M2pd with much higher catalytic efficiency. Both substrates were optimally cleaved at pH 4.0. A peptide derived from the processing site of presenilin 1 (SVNM/AEGD) (SEQ ID NO:6) was also cleaved by M2pd with less efficient kinetic parameters. […]
Incubation in 0.1 M sodium acetate, pH 4.0, for 16 h at 22° C. auto-catalytically converted pro-M2pd to M2pd. […] For kinetic studies, the identified HPLC (Beckman System Gold) product peaks were integrated for quantitation. The Km and kcat values for presenilin 1 and Swedish APP peptides (Table 1) were measured by steady-state kinetics. The individual Km and kcat values for APP peptide could not be measured accurately by standard methods, so its kcat/Km value was measured by competitive hydrolysis of mixed substrates against presenilin 1 peptide (Fersht, A. “Enzyme Structure and Mechanism”, 2nd Ed., W.H. Freeman and Company, New York. (1985)).

cleavage by M2pd [2] | Compound | production of APP fragments beta N- and beta C- [1]
 | CO/C1=C\C(C)=C\[C@@H](C)[C@@H](O)[C@@H](C)C/C(C)=C/C=C/[C@H](OC)[C@@H]([C@@H](C)[C@@H](O)[C@H](C)[C@@]2(O)C[C@@H](O)[C@H](C)[C@@H](C(C)C)O2)OC1=O [Bafilomycin A1] | abolished the production of both APP fragments
not cleaved | KGGVVIATVIVK | 
